Measured values as given in patent publication US10882859B2, “Kinase inhibitors” (Topivert Pharma Limited, priority 2015, dated 2021).
Read-outs that look alike come from different tables or passages of the source.

What was measured:
[1] = tested on: CD3/IL2 stimulated PBMC cells; assay: IFNγ release from CD3/IL2 stimulated PBMC cells; format: cell-based; conditions: Homo sapiens, CD3/IL2 stimulation, 48 h, ELISA
Protocol: PBMCs from healthy subjects are separated from whole blood using a density gradient (Lymphoprep, Axis-Shield Healthcare). Cells are added to a 96 well plate, and compound at the desired concentration added 2 hours prior to stimulation with a mixture of monoclonal antibody to CD3 (1 μg/ml, eBioscience) and human recombinant IL2 (10 ng/ml, Peprotech). After 48 hours incubation under normal tissue culture conditions, supernatants are collected and IFNγ release determined by Sandwich ELISA (Duo-set, R&D System). The IC50 is determined from the dose response curve.

Jurkat cells = assay: Cell cytotoxicity assay (propidium iodide, flow cytometry); format: cell-based, human; conditions: 24 h
Protocol: 1×10^5 Jurkat cells (immortalised human T lymphocytes) are added to the appropriate number of wells of a 96 well plate in 100 μL of media (RPMI supplemented with 10% foetal bovine serum). 1 μL of DMSO control (final concentration 1.0% v/v) or test compound (final concentration 20, 5 or 1 μg/mL) is added to the wells and incubated at 37° C., 5% CO2. After 24 hours, the plate is centrifuged at 1200 rpm for 3 minutes and the supernatant discarded. Cells are then resuspended in 150 μL (final concentration 7.5 μg/mL) of propidium iodide (PI) in PBS and incubated at 37° C., 5% CO2 for 15 minutes. After 15 minutes, cells are analysed by flow cytometry (BD accuri) using the FL3 window. The % viability is calculated as the % of cells that are PI negative in the test wells normalised to the DMSO control.

[2] = Systemic pharmacokinetics and total colon tissue distribution after single oral administration; format: in vivo, male C57BL/6 mice; conditions: mice, oral 10 mg/kg; for concentration at 0.5 h / concentration at 1 h / concentration at 2 h / concentration at 4 h / concentration at 6 h / concentration at 8 h / concentration at 12 h / concentration at 24 h: male, C57BL/6, mouse
Protocol: Studies were conducted by Sai Life Sciences (Hinjewadi, Pune, India) to investigate the systemic pharmacokinetics and total colon tissue distribution of compounds of the invention following a single oral administration in male C57BL/6 mice.
A group of twenty four male mice were administered with a solution of test compound formulated at a dose of 10 mg/10 mL/kg in aqueous hydroxypropyl-β-cyclodextrin (20% w/v in water). Blood samples ([…]) were collected from retro-orbital plexus of each mouse under light isoflurane anaesthesia such that the samples were obtained at 0.5, 1, 2, 4, 6, 8, 12 and 24 hr. The blood samples were collected from a set of three mice at each time point in a labeled micro centrifuge tube containing K2EDTA as anticoagulant. Plasma samples were separated by centrifugation at 4000 rpm for 10 min and stored below −70° C. until bioanalysis. After collection of blood sample, animals were humanely euthanized by carbon dioxide asphyxiation to collect total colon tissues. The colons were flushed with cold PBS (pH7.4) to remove contents. The total colon tissues were homogenized with cold PBS (pH7.4) of twice the weight of colon tissue and stored below −70° C. Total volume was three times the total colon tissue weights. All samples were processed for analysis by protein precipitation using acetonitrile and analyzed with a fit-for-purpose LC-MS/MS method. Pharmacokinetic parameters were calculated using the non-compartmental analysis tool of Phoenix WinNonlin® (Version 6.3).

[3] = total colon tissue, total colon, read-out: Mean total colon level
[4] = plasma, read-out: Mean plasma concentration

Row | Compound | IC50 [1] [nM] | % viability at 1 μg/mL (Jurkat cells) [%] | further results
1 | CCc1cc(O)c(F)cc1-c1ccc2c(-c3nc4c([nH]3)CCN(S(=O)(=O)N3CCC(OC)CC3)C4)n[nH]c2c1 [Example 6(i), 5-Ethyl-2-fluoro-4-(3-(5-((4-methoxypiperidin-1-yl)sulfonyl)-4,5,6,7-tetrahydro-1H-imidazo[4,5-c]pyridin-2-yl)-1H-indazol-6-yl)phenol] | 14 | 86 | –
2 | CCc1cc(O)c(F)cc1-c1ccc2c(-c3nc4c([nH]3)CCN(S(=O)(=O)N3CCN(C)CC3)C4)n[nH]c2c1 [Example 6(f), 5-ethyl-2-fluoro-4-(3-(5-((4-methylpiperazin-1-yl)sulfonyl)-4,5,6,7-tetrahydro-1H-imidazo[4,5-c]pyridin-2-yl)-1H-indazol-6-yl)phenol] | 9 | 29 | –
3 | CCc1cc(O)c(F)cc1-c1ccc2c(-c3nc4c([nH]3)CCN(S(=O)(=O)N3CCN(S(C)(=O)=O)CC3)C4)n[nH]c2c1 [Example 5] | 17.8 | 87 | –
4 | CCc1cc(O)c(F)cc1-c1ccc2c(-c3nc4c([nH]3)CCN(S(=O)(=O)N3CCS(=O)(=O)CC3)C4)n[nH]c2c1 [Example 6(g), 4-((2-(6-(2-ethyl-5-fluoro-4-hydroxyphenyl)-1H-indazol-3-yl)-6,7-dihydro-1H-imidazo[4,5-c]pyridin-5(4H)-yl)sulfonyl)thiomorpholine 1,1-dioxide] | 7.2 | 88 | –
5 | CCc1cc(O)c(F)cc1-c1ccc2c(-c3nc4c([nH]3)CCN(C(=O)Nc3cn(C)c(=O)n(C)c3=O)C4)n[nH]c2c1 [Example 4(d), N-(1,3-dimethyl-2,4-dioxo-1,2,3,4-tetrahydropyrimidin-5-yl)-2-(6-(2-ethyl-5-fluoro-4-hydroxyphenyl)-1H-indazol-3-yl)-6,7-dihydro-1H-imidazo[4,5-c]pyridine-5(4H)-carboxamide] | 19.2 | 60 | –
6 | CCc1cc(O)c(F)cc1-c1ccc2c(-c3nc4c([nH]3)CCN(C(=O)NCCOCCOC)C4)n[nH]c2c1 [Example 4(a), 2-(6-(2-ethyl-5-fluoro-4-hydroxyphenyl)-1H-indazol-3-yl)-N-(2-(2-methoxyethoxy)ethyl)-6,7-dihydro-1H-imidazo[4,5-c]pyridine-5(4H)-carboxamide] | 14.6 | 60 | –
7 | CCc1cc(O)c(F)cc1-c1ccc2c(-c3nc4c([nH]3)CCN(C(=O)N3CCN(CC)C(=O)C3=O)C4)n[nH]c2c1 [Example 2(c), 1-ethyl-4-(2-(6-(2-ethyl-5-fluoro-4-hydroxyphenyl)-1H-indazol-3-yl)-4,5,6,7-tetrahydro-1H-imidazo[4,5-c]pyridine-5-carbonyl)piperazine-2,3-dione] | 129 | 99 | –
8 | CCc1cc(O)c(F)cc1-c1ccc2c(-c3nc4c([nH]3)CCN(S(=O)(=O)N3CCN(C=O)CC3)C4)n[nH]c2c1 [Example 6(h), 4-((2-(6-(2-ethyl-5-fluoro-4-hydroxyphenyl)-1H-indazol-3-yl)-6,7-dihydro-1H-imidazo[4,5-c]pyridin-5(4H)-yl)sulfonyl)piperazine-1-carbaldehyde] | 37.4 | 93 | –
9 | CCc1cc(O)c(F)cc1-c1ccc2c(-c3nc4c([nH]3)CCN(S(=O)(=O)N(CCC#N)CCOC)C4)n[nH]c2c1 [Example 6(a), N-(2-cyanoethyl)-2-(6-(2-ethyl-5-fluoro-4-hydroxyphenyl)-1H-indazol-3-yl)-N-(2-methoxyethyl)-6,7-dihydro-1H-imidazo[4,5-c]pyridine-5(4H)-sulfonamide] | 9.5 | 79 | –
10 | CCc1cc(O)c(F)cc1-c1ccc2c(-c3nc4c([nH]3)CCN(C(=O)c3cnc(N5CCCCC5)cn3)C4)n[nH]c2c1 [Reference Compound, reference compound] | – | 49 | concentration at 0.5 h [2, 3]: 344 ng/g; concentration at 1 h [2, 3]: 102 ng/g; concentration at 2 h [2, 3]: 2370 ng/g; concentration at 4 h [2, 3]: 2970 ng/g; concentration at 6 h [2, 3]: 201 ng/g; concentration at 8 h [2, 3]: 2560 ng/g; concentration at 12 h [2, 3]: 3230 ng/g; concentration at 24 h [2, 3]: 16.6 ng/g; concentration at 0.5 h [2, 4]: 5.2 ng/mL; concentration at 1 h [2, 4]: 12.8 ng/mL; concentration at 2 h [2, 4]: 2.2 ng/mL; concentration at 4 h [2, 4]: 14.4 ng/mL; concentration at 6 h [2, 4]: 114 ng/mL; concentration at 8 h [2, 4]: 95 ng/mL; concentration at 12 h [2, 4]: 0 ng/mL; concentration at 24 h [2, 4]: 0 ng/mL; Colonic exposure AUC0-24 h ([2]; total colon): 43,739 h·ng/g
11 | CCc1cc(O)c(F)cc1-c1ccc2c(-c3nc4c([nH]3)CCN(S(=O)(=O)N(C)C3CCOCC3)C4)n[nH]c2c1 [Example 6(c), 2-(6-(2-ethyl-5-fluoro-4-hydroxyphenyl)-1H-indazol-3-yl)-N-methyl-N-(tetrahydro-2H-pyran-4-yl)-6,7-dihydro-1H-imidazo[4,5-c]pyridine-5(4H)-sulfonamide] | 9.3 | 76 | –
12 | CCc1cc(O)c(F)cc1-c1ccc2c(-c3nc4c([nH]3)CCN(C(=O)NCC3CCOCC3)C4)n[nH]c2c1 [Example 3, 2-(6-(2-Ethyl-5-fluoro-4-hydroxyphenvl)-1H-indazol-3-yl)-N-((tetrahydro-2H-byran-4-yl)methyl)-6,7-dihydro-1H-imidazo[4,5-c]pyridine-5(4)-carboxamide] | 19.5 | 91 | –
13 | CCc1cc(O)c(F)cc1-c1ccc2c(-c3nc4c([nH]3)CCN(C(=O)N(C)c3ccccc3)C4)n[nH]c2c1 [Example 2(e), 2-(6-(2-ethyl-5-fluoro-4-hydroxyphenyl)-1H-indazol-3-yl)-N-methyl-N-phenyl-1,4,6,7-tetrahydro-5H-imidazo[4,5-c]pyridine-5-carboxamide] | 10.9 | 92 | –
14 | CCc1cc(O)c(F)cc1-c1ccc2c(-c3nc4c([nH]3)CCN(S(=O)(=O)N3CCOCC3)C4)n[nH]c2c1 [Example 6(e), 5-ethyl-2-fluoro-4-(3-(5-(morpholinosulfonyl)-4,5,6,7-tetrahydro-1H-imidazo[4,5-c]pyridin-2-yl)-1H-indazol-6-yl)phenol] | 4.7 | 64 | –
15 | CCc1cc(O)c(F)cc1-c1ccc2c(-c3nc4c([nH]3)CCN(S(=O)(=O)N3CCCC3)C4)n[nH]c2c1 [Example 6(d), 5-ethyl-2-fluoro-4-(3-(5-(pyrrolidin-1-ylsulfonyl)-4,5,6,7-tetrahydro-1H-imidazo[4,5-c]pyridin-2-yl)-1H-indazol-6-yl)phenol] | 8.3 | 74 | –
